# According to patent publication US4806532A, “Inhibition of epithelial phosphate transport” (Mayo Foundation for Medical Education and Research, priority 1985, dated 1989):
# Counter-ions that a name gives are not always drawn. Like-named read-outs stand apart in the source and are kept apart here.
# Tests used:
# Na-Pi cotransporter = biological target: T1, Na-Pi cotransporter (Rattus norvegicus, UniProt Q06496); assay: Na+-gradient-dependent 32Pi uptake by renal cortical BBMV (rapid filtration); type: biochemical; conditions: for 32Pi Uptake 120 min / 32Pi Uptake 20 sec: 5 min preincubation; for 32Pi Uptake 120 min: equilibrium; for 32Pi Uptake 20 sec: mean ± SE of 3-5 experiments
# T1 construct: from tissue; host or cells: rat renal cortex, brush border membrane vesicles
# T1 sequence (Q06496 1-637): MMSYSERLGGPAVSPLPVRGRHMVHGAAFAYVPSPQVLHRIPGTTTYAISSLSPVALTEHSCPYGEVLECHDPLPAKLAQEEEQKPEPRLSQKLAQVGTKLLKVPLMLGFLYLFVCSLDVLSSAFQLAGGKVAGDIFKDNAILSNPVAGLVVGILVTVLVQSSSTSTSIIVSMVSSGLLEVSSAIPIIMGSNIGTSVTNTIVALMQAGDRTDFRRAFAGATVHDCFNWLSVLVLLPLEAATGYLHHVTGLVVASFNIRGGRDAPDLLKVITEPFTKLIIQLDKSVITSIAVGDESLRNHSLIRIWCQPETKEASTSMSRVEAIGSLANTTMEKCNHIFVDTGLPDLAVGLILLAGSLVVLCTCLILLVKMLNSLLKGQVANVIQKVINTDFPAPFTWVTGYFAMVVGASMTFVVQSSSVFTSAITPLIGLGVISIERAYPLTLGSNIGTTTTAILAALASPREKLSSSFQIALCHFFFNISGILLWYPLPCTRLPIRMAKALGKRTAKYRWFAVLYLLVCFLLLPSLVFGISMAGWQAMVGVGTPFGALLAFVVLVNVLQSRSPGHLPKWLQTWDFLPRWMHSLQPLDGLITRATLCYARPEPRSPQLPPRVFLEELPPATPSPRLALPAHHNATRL
# Protocol: (§1) The brush border membrane vesicles (BBMV) were prepared from renal cortical tissue of adult male Sprague-Dawley rats of an average body weight of about 220 grams. Rats were fed ad libitum standard rat chow containing 0.7% Pi and had free access to distilled water. Rats were sacrificed under anesthesia and dissected renal cortical tissue was used for preparation of BBMV fraction by the divalent cation-precipitation procedure, employed and described in detail in J. Clin. Invest., 67, 1347 (1981) and J. Biol. Chem., 258, 5695 (1983), with the following modifications: (a) MgCl2 instead of CaCl2 was added to crude homogenate (final concentration 10 mM MgCl2) to precipitate membranes other than BBMV; (b) in the final step, BBMV were washed and equilibrated in a medium of pH=7.5, instead of pH=8.5. The enrichment and specific activities of typical BBM enzymes alkaline phosphatase (APases), γ-glutyamyl transferase (γ-GTT), leucineaminopeptidase (LAP) and maltase with use of these modifications were similar as in BBMV fractions prepared in our previous studies. As a final step in the preparative procedure, the BBMV fraction was washed and resuspended in a medium containing 300 mM mannitol and 5 mM Tris-HEPES adjusted to pH=t.5, referred to as "MTH-medium," unless specified otherwise. The analogous BBMV fractions, using the same procedure, were prepared from renal cortices of mongrel dogs, albino mice and New Zealand albino rabbits.
# The BBMV uptake of ^32 Pi, D-[^3 H]-glucose, L-[^3 H]-proline and ^22 Na^+ was measured by means of a rapid filtration technique, as described in J. Clin. Invest., 67, 1347 (1981) and Am. J. Physiol., 246, F133-F139 (1984). Also, unless specified otherwise, the medium for the solute uptake assay consisted of following compounds (in final concentrations): 100 mM mannitol, 100 mM NaCl (or 100 mM KC1) and 5 mM Tris-HEPES (pH=7.5) and eitehr 0.1 mM K2 H^32 PO4, or 0.05 mM D-[^3 H]-glucose, or 0.025 mM L-[^3 H]-proline. IN the ^22 Na^+ uptake studies, the assay medium contained 100 mM ^22 NaCl (^22 NaCl about […] per tube), 100 mM mannitol and 5 mM Tris-HEPES (pH 7.5).
# In most experiments, the Na^+ -gradient-dependent ^32 Pi uptake in the concentrative "uphill" phase was measured at 20 seconds period. Since Na^+ -independent Pi uptake in this time period was quantitatively minor component (<5%) of the Na^+ -gradient-dependent Pi uptake, it was not routinely subtracted.
# [1] = test system: L-[^3 H]--proline uptake by BBMV from rat small intestine; assay: L-[3H]-proline uptake by intestinal BBMV; type: biochemical; conditions: 1 mM; for L-[3H]-proline uptake 15 sec: control 27 ± 0.2; for L-[3H]-proline uptake 120 min: control 53 ± 2
# [2] = test system: ^14 C--succinate uptake by BBMV from rat small intestine; assay: 14C-succinate uptake by intestinal BBMV; type: biochemical; conditions: 1 mM; for 14C-succinate uptake 120 min: control 78 ± 3; for 14C-succinate uptake 15 sec: control 118 ± 7
# [3] = test system: intestinal BBM alkaline phosphatase; assay: Effect on intestinal BBM alkaline phosphatase (data not shown); type: biochemical, rat
# [4] = Hydrolysis of phosphono-compounds (release of Pi) in the BBMV assay; conditions: 1 mM; hydrolysis to release more than 5% Pi
# Excerpt: Compounds studied in the present experiments which inhibited BBM transport of Pi without hydrolysis to release more than 5% Pi are listed in Table 1.
# [5] = test system: D-[^3 H]-glucose uptake by BBMV; assay: Na+-gradient-dependent uptake of D-[3H]-glucose by renal BBMV; type: biochemical, rat; conditions: 1 mM TPFA; mean ± SEM, n=4; control 66±15
# Protocol: as §1, with “As a final step in the preparative procedure, the BBMV fraction was washed and resuspended in a medium containing 300 mM mannitol and 5 mM Tris-HEPES adjusted to pH=t.5, referred to as "MTH-medium," unless specified otherwise. The analogous BBMV fractions, using the same procedure, were prepared from renal cortices of mongrel dogs, albino mice and New Zealand albino rabbits.” left out
# The BBMV uptake of ^32 Pi, D-[^3 H]-glucose, L-[^3 H]-proline and ^22 Na^+ was measured by means of a rapid filtration technique, as described in J. Clin. Invest., 67, 1347 (1981) and Am. […]
# [6] = 1 mM, initial uptake at 20 sec, rat kidney cortex BBMV, read-out: Δ% (inhibition as percent decrease from control) of Na+-gradient-dependent 32Pi uptake
Compound,Δ% ratio of uptake at uphill phase (20 sec) and equilibrium phase (120 min) (Na-Pi cotransporter; 0.2 mM),32Pi Uptake 120 min (Na-Pi cotransporter; 0.2 mM) [pmoles/mg protein],32Pi Uptake 20 sec (Na-Pi cotransporter; 0.2 mM) [pmoles/mg protein],Δ% ratio of uptake at uphill phase (20 sec) and equilibrium phase (120 min) (Na-Pi cotransporter; 1.0 mM),32Pi Uptake 120 min (Na-Pi cotransporter; 1.0 mM) [pmoles/mg protein],32Pi Uptake 20 sec (Na-Pi cotransporter; 1.0 mM) [pmoles/mg protein],inhibition at 1000 µM (Na-Pi cotransporter; [6]) [%],Δ% ratio of uptake at uphill phase (20 sec) and equilibrium phase (120 min) (Na-Pi cotransporter; 5.0 mM),32Pi Uptake 120 min (Na-Pi cotransporter; 5.0 mM) [pmoles/mg protein],32Pi Uptake 20 sec (Na-Pi cotransporter; 5.0 mM) [pmoles/mg protein],L-[3H]-proline uptake 15 sec [1] [pmoles/mg protein],L-[3H]-proline uptake 120 min [1] [pmoles/mg protein],14C-succinate uptake 120 min [2] [pmol/mg protein],14C-succinate uptake 15 sec [2] [pmol/mg protein],inhibition of intestinal BBM alkaline phosphatase [3],Note: hydrolysis [4],also measured
"O=C(O)CP(=O)(O)O [PAA, phosphonoacetic acid]",+305 ± 101%,320 ± 80,1057 ± 89,+331 ± 86%,274 ± 51,1019 ± 94,-18,+261 ± 78%,269 ± 52,876 ± 68,27 ± 1.0,55 ± 1.0,89 ± 3,127 ± 2,neither TPFA or PAA inhibited,no,
"O=C(O)P(=O)(O)O [TPFA, Phosphonoformic acid, trisodium salt hexahydrate]",+262 ± 44%,264 ± 53,869 ± 45,+137 ± 27%,248 ± 47,541 ± 39,-53,< 0.0%,239 ± 44,153 ± 28,27 ± 0.4,54 ± 0.1,81 ± 1,125 ± 3,neither TPFA or PAA inhibited,no,"effect on intravesicular volume of BBMV (Na-Pi cotransporter): did not alter; nature of the inhibitory effect on Pi uptake (Na-Pi cotransporter): competitive; inhibition at 1000 µM (Na-Pi cotransporter; 20 s, Rat, 1 mM TPFA, read-out: percent decrease of 20 sec 32Pi-uptake relative to control value): 59.1%; inhibition at 5000 µM (Na-Pi cotransporter; 20 s, Rat, 5 mM TPFA, read-out: percent decrease of 20 sec 32Pi-uptake relative to control value): 78%; effect on 32Pi uptake by BBMV in the absence of Na+ (Na-Pi cotransporter; NaCl replaced by KCl, 1 mM TPFA, FIG. 1): had no effect; 32Pi-uptake 120 min (Na-Pi cotransporter; Rat, 1 mM TPFA, control 361 ± 9): 359 ± 8 pmoles Pi/mg protein/time; 32Pi-uptake 20 sec (Na-Pi cotransporter; Rat, 1 mM TPFA, control 1570 ± 31): 783 ± 6 pmoles Pi/mg protein/time; 32Pi-uptake 20 sec (Na-Pi cotransporter; Rat, 5 mM TPFA): 344 ± 7 pmoles Pi/mg protein/time; 32Pi-uptake 120 min (Na-Pi cotransporter; Rat, 5 mM TPFA): 379 ± 34 pmoles Pi/mg protein/time; Ki (Na-Pi cotransporter; competitive inhibition, renal cortical BBMV): 460 µM; effect on 32Pi uptake under Na+ equilibrium conditions [Na+i = Na+o] (Na-Pi cotransporter; initial fast uptake phase (0-60 seconds), data not shown): inhibited; uptake of D-[3H]-glucose at 120 minutes [5]: 65±12 pmoles/mg protein"
